Data published in patent US20180228743A1, “COMPOUNDS AND METHODS OF PROMOTING MYELINATION” (Case Western Reserve University, priority 2016, published 2018).
Where “and” joins values, the source holds several entries; their conditions need not be identical. Equal values may be shown once. Where a name gives a salt, the structure may show the parent alone. Read-outs that look alike come from different tables or passages of the source.

How the values were obtained:
EpiSC-derived OPCs [1] = test: Oligodendrocyte formation on electrospun microfibers; assay type: cell-based, mouse; conditions: 14 days
Experimental: A 12-well plate containing Mimetex aligned scaffold (microfiber plate, AMSBIO, AMS.TECL-006-1X, Electrospun poly-L-lactide Scaffold, […] cell crown inserts) was prepared as previously described. Briefly, inserts were sterilized with 70% ethanol and washed with PBS before being coated with polyornithine and laminin. After laminin coating, 100,000 cells/mL of EpiSC-derived OPCs were plated in differentiation medium. After 24 h the media was replaced with fresh media containing small molecule treatments. Every 48 h the media was replaced with fresh compound containing media for a total of 14 days. Plates were fixed with 4% PFA, permeabilized with 0.1% Triton X-100, and blocked with 10% donkey serum (v/v) in PBS for 60 min. Plates were stained for MBP (Abcam, ab7349; 1:100) and DAPI staining (Sigma; 5 μg/ml). After staining, the inserts were moved into new 12-well plate and covered with 2 mL of PBS before imaging in Operetta high content Imaging and analysis system. […] Analysis (PerkinElmer Harmony and Columbus software) identified intact nuclei stained by DAPI and calculated the MBP signal intensity per cell per well. Microfiber insert tracking images were taken using a Leica DMi8 with a 20× Dry/NA 0.40 objective. Microfiber plate inserts were mounted using Flouromount-G (SouthernBiotech) and allowed to partially harden before coverslips were added and the insert ring was removed. Confocal images were obtained on a Leica SP8 confocal scanning microscope, with 40× oil/NA 1.30 objective. Confocal stacks of 0.336 μm z-steps were taken at 1024×1024. Each fluorophore was excited sequentially and all contrast and brightness changes were applied consistently between images.

EBP = target: T1, EBP (Mus musculus, UniProt P70245); test: EBP enzymatic assay (GC/MS); assay type: biochemical; conditions: 10 μM, zymostenol 25 μM
T1 construct: active EBP was obtained from mouse microsomes; from tissue
T1 sequence (P70245 1-230): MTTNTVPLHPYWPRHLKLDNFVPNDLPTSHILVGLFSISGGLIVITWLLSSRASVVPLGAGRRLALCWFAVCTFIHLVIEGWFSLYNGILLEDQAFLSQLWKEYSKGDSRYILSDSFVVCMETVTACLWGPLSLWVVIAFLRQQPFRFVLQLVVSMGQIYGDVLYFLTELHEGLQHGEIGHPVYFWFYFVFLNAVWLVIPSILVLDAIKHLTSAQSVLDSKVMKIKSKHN

EpiSC-derived OPCs [2] = test: In vitro phenotypic screening of OPCs (MBP+ oligodendrocytes at 72 h); assay type: cell-based, mouse; conditions: for oligodendrocyte formation in combination with ketoconazole: ketoconazole 2.5 μM (maximally effective dose)
[3] = system: human induced pluripotent stem cell-derived cortical spheroids; test: GC/MS sterol profiling in human cortical spheroids; assay type: cell-based; conditions: 2 μM, 24 h
rat CYP51 = target: T2, rat CYP51 (Rattus norvegicus, UniProt Q64654); test: CYP51 enzymatic assay (LC/MS quantitation of FF-MAS); assay type: biochemical; conditions: lanosterol 50 μM, 30 minutes; read-out: IC50 for inhibition of rodent CYP51 in vitro
T2 construct: purchased Cypex, Inc
T2 sequence (Q64654 1-503): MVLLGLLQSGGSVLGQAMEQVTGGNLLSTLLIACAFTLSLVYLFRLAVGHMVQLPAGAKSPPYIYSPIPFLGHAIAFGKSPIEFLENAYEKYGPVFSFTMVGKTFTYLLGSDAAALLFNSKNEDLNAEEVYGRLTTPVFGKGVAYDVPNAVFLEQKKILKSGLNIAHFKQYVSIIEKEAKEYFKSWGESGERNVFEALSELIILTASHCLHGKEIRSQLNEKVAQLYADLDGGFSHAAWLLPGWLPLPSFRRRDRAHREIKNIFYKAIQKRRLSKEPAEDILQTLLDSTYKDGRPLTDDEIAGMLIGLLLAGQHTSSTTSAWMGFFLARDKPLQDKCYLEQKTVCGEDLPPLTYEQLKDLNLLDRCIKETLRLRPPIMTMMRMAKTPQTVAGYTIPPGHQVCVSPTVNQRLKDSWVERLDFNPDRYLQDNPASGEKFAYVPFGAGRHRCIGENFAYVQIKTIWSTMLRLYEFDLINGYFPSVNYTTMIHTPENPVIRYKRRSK
Experimental: Finally, 15 μl of each reaction/isopropanol mixture was injected onto a SCIEX Triple Quad 6500 LC-MS/MS system using an APCI ion source in positive ion mode with a Shimadzu UFLC-20AD HPLC and a Phenomenex

[4] = system: human glioma cells (GBM528); test: GC/MS sterol profiling in human glioma cell line; assay type: cell-based; conditions: 24 h
OPCs = test: GC/MS-based sterol profiling in OPCs; assay type: cell-based, mouse; conditions: for sterol levels / sterol intermediate accumulation in OPCs: 24 h treatment (siRNA 96 h)
LPC-lesioned spinal cord = test: LPC focal demyelination of spinal cord, remyelination histology; assay type: in vivo, mouse; conditions: ifenprodil 10 mg per kg, tamoxifen 2 mg per kg, daily intraperitoneal, 8 days from day 4 after lesion
T47D cells = conditions: 5 days
EpiSC-derived OPCs [5] = test: High-throughput screening of 3,000 bioactive small molecules for MBP+ oligodendrocyte formation from OPCs; assay type: cell-based, mouse; conditions: 2 μM, 72 h; for % 0ligos: MBP+ oligodendrocytes; for fold induction at 2 µM: Mus musculus, relative to DMSO controls of the same plate, read-out: fold-change in % MBP + oligodendrocytes
Excerpt: Plates were imaged on the Operetta High Content Imaging and Analysis system (PerkinElmer) and a set of 6 fields captured from each well resulting in an average of 1200 cells being scored per well. Analysis (PerkinElmer Harmony and Columbus software) began by identifying intact nuclei stained by DAPI; that is, those traced nuclei that were larger than 300 μm^2 in surface area. Each traced nucleus region was then expanded by 50% and cross-referenced with the […] (MBP) stain to identify oligodendrocyte nuclei, and from this the percentage of oligodendrocytes was calculated. In some experiments, the total process length of MBP+ oligodendrocytes was calculated as previously described.
EpiSC-derived OPCs were grown and expanded in poly-ornithine and laminin-coated flasks before harvesting for plating. Cells were dispensed in differentiation media supplemented with Noggin (R&D Systems; 100 ng/ml), Neurotrophin 3 (R&D Systems; 10 ng/ml), cAMP (Sigma; 50 μM), and IGF-1 (R&D Systems; 100 ng/ml)) using a Biotek EL406 Microplate Washer Dispenser (Biotek) equipped with 5 μL dispense cassette (Biotek), into poly-D-lysine/laminin (Sigma, L2020; 4 μg/ml)-coated sterile, 384-well, CellCarrier ultra plates (PerkinElmer), to a final density of 12,500 cells per well and allowed to attach for 45 min before addition of drug. A 3 mM stock of bioactive compound library in dimethylsulphoxide (DMSO) were prepared in an Abgene storage 384-well plate (ThermoFisher Scientific; AB1055). These were added to assay plates using a 50 nL solid pin tool attached to Janus automated workstation (Perkin Elmer), resulting in a final screening concentration of 2 μM. Cells were incubated at 37° C. for 1 hour and then T3 (Sigma; 40 ng/ml) was added to all wells except negative controls, to which FGF (20 ng/ml) was added instead. Negative controls and T3-alone were included in each assay plate. After incubation at 37° C. for 72 h, cells were fixed, washed and stained similar to 96-well OPC assay protocol, although all the washing steps were performed using a Biotek EL406 Microplate Washer Dispenser (Biotek) equipped with a 96-well aspiration manifold. Cells were stained with DAPI (Sigma; 1 μg/ml) and MBP antibody (Abcam, ab7349; 1:100). Plates were imaged on the Operetta High Content Imaging and Analysis system (PerkinElmer) and a set of 4 fields captured from each well resulting in an average of 700 cells being scored per well. Analysis was performed as in High-Content Imaging and Analysis, above. All plates for the primary screen were processed and analyzed simultaneously to minimize variability. Molecules causing more than 20% reduction in nuclear count relative to DMSO control wells were removed from consideration, and hits were called on the basis of largest fold-increase in percentage of MBP+ oligodendrocytes relative to DMSO controls within the same plate.

mouse brain = test: Analysis of mouse brain sterol levels (GC/MS); assay type: in vivo; conditions: miconazole 10 mg per kg, ifenprodil 10 mg per kg, tamoxifen 2 mg per kg; 3 days intraperitoneal dosing
Experimental: Mice were anaesthetized with isoflurane and perfused with phosphate buffered saline to remove blood from the brain. Brains were collected and flash frozen using liquid nitrogen. The samples were pulverized and 50-100 milligrams of tissue were collected for further processing. A modified Folch protocol was used for extraction of sterols. Briefly, samples were resuspended in a 2:1 chloroform/methanol mixture and homogenized. Cell debris was removed by centrifugation at 4000 g for 10 min. The solution was dried under air and resuspended in hexane with a cholesterol-D7 standard and dried again. Lipids were derivatized with 70 al of bis(trimethylsilyl)trifluoroacetamide; 2 μls were injected and analyzed by GC/MS as described above.

[6] = mouse; cited from earlier work

SMILES: COc1ccc(S(=O)(=O)N2CCC(N3CCC(C)CC3)CC2)cc1 [TASIN-1]
- MBP+ oligodendrocyte tracking along and wrapping of microfibers (EpiSC-derived OPCs [1]): significantly enhanced MBP+ oligodendrocyte tracking along and wrapping of the microfibers
- inhibition of EBP enzymatic activity (EBP): clear inhibition
- formation of MBP+ oligodendrocytes from OPCs (EpiSC-derived OPCs [2]; 72 h): enhanced formation of MBP+ oligodendrocytes

SMILES: Clc1ccc(COC(Cn2ccnc2)c2ccc(Cl)cc2Cl)c(Cl)c1 (stereo not shown) [miconazole, Miconazole]
- 8,9-unsaturated sterol accumulation in human cortical spheroids [3]: led to 8,9-unsaturated sterol accumulation
- IC50 (rat CYP51): 300 to 700 nM
- sterol intermediate accumulation in human glioma cell line [4]: caused accumulation of the expected sterol intermediates

SMILES: CC/C(=C(\c1ccccc1)c1ccc(OCCN(C)C)cc1)c1ccccc1 [tamoxifen, Tamoxifen]
- inhibition of EBP enzymatic activity (EBP): clear inhibition
- oligodendrocyte formation in combination with ketoconazole (EpiSC-derived OPCs [2]; 72 h): did not enhance differentiation above levels seen for ketoconazole alone
- sterol levels / sterol intermediate accumulation in OPCs (OPCs): induced accumulation of zymostenol and zymosterol and decreased basal sterol levels
- sterol intermediate accumulation in human glioma cell line [4]: caused accumulation of the expected sterol intermediates
- remyelination of LPC lesion (LPC-lesioned spinal cord): remyelination was widespread throughout the lesion

SMILES: CN1[C@@H]2CC[C@H]1C[C@@H](OC(c1ccccc1)c1ccccc1)C2 [benztropine, Benztropine]
- inhibition of EBP enzymatic activity (EBP): clear inhibition
- oligodendrocyte formation in combination with ketoconazole (EpiSC-derived OPCs [2]; 72 h): did not enhance differentiation above levels seen for ketoconazole alone
- sterol levels / sterol intermediate accumulation in OPCs (OPCs): induced accumulation of zymostenol and zymosterol and decreased basal sterol levels

SMILES: CCC(C)(C)c1ccc(CC(C)CN2C[C@@H](C)O[C@@H](C)C2)cc1 (stereo partly shown) [amorolfine, Amorolfine]
- MBP+ oligodendrocyte tracking along and wrapping of microfibers (EpiSC-derived OPCs [1]): significantly enhanced MBP+ oligodendrocyte tracking along and wrapping of the microfibers
- formation of MBP+ oligodendrocytes from OPCs (EpiSC-derived OPCs [2]; 72 h): enhanced formation of MBP+ oligodendrocytes

SMILES: OCCOc1ccc(/C(=C(/CCCl)c2ccccc2)c2ccccc2)cc1 [ospemifene, Ospemifene]
- formation of MBP+ oligodendrocytes from OPCs (EpiSC-derived OPCs [2]): did not enhance differentiation to MBP+ oligodendrocytes
- enzyme inhibited in OPCs as indicated by sterol profile (OPCs): did not inhibit EBP in OPCs
- antiestrogen effect on estrogen-dependent growth (T47D cells): comparable antiestrogen effects

SMILES: Cc1cc(C)c(CNC(=O)c2cc(-c3ccc(CN4CCOCC4)cc3)cc3c2cnn3C2CCCC2)c(=O)[nH]1 [EPZ005687]
- inhibition of EBP enzymatic activity (EBP): directly inhibiting EBP enzymatic activity
- cell viability (% relative to DMS0) (EpiSC-derived OPCs [5]): 91.36%
- % 0ligos (EpiSC-derived OPCs [5]): 50.00%
- fold induction at 2 µM (EpiSC-derived OPCs [5]): 5.9
- formation of MBP+ oligodendrocytes from OPCs (EpiSC-derived OPCs [2]; 72 h): enhanced oligodendrocyte formation in both our mouse epiblast stem cell-derived OPCs and mouse primary OPCs
- sterol levels / sterol intermediate accumulation in OPCs (OPCs): uniquely caused accumulation of zymosterol and zymostenol in OPCs

SMILES: OCCOCCN1CCN(C(c2ccccc2)c2ccc(Cl)cc2)CC1 (stereo not shown) [Hydroxyzine 2HCl]
- inhibition of EBP enzymatic activity (EBP): directly inhibiting EBP enzymatic activity
- cell viability (% relative to DMS0) (EpiSC-derived OPCs [5]): 134.19%
- % 0ligos (EpiSC-derived OPCs [5]): 40.63%
- fold induction at 2 µM (EpiSC-derived OPCs [5]): 4.8

SMILES: Clc1ccccc1C(c1ccccc1)(c1ccccc1)n1ccnc1 [Clotrimazole]
- cell viability (% relative to DMS0) (EpiSC-derived OPCs [5]): 112.83% and 122.50%
- fold induction at 2 µM (EpiSC-derived OPCs [5]): 3.85
- IC50 (rat CYP51): 300 to 700 nM

SMILES: CC(C(O)c1ccc(O)cc1)N1CCC(Cc2ccccc2)CC1 (stereo not shown) [lfenprodil Tartrate]
- cell viability (% relative to DMS0) (EpiSC-derived OPCs [5]): 103.79%
- cell viability (% relative to DMS0) (EpiSC-derived OPCs [5]; listed as lfenprodil tartrate): 106.02%
- fold induction at 2 µM (EpiSC-derived OPCs [5]): 4.89
- 8,9-unsaturated sterol accumulation in human cortical spheroids [3]: led to 8,9-unsaturated sterol accumulation
- accumulation of 8,9-unsaturated sterols in brain (mouse brain): induced significant accumulation of 8,9-unsaturated sterols in the brain
- blood brain barrier penetration [6]: known to cross the mouse blood brain barrier
- sterol intermediate accumulation in human glioma cell line [4]: caused accumulation of the expected sterol intermediates
- remyelination of LPC lesion (LPC-lesioned spinal cord): remyelination was widespread throughout the lesion

SMILES: CC(=O)N1CCN(c2ccc(OCC3COC(Cn4ccnc4)(c4ccc(Cl)cc4Cl)O3)cc2)CC1 (stereo not shown) [Ketoconazole]
- MBP+ oligodendrocyte tracking along and wrapping of microfibers (EpiSC-derived OPCs [1]): significantly enhanced MBP+ oligodendrocyte tracking along and wrapping of the microfibers
- % 0ligos (EpiSC-derived OPCs [5]): 52.77%
- IC50 (rat CYP51): 300 to 700 nM

SMILES: CN(C)CCOc1ccc(/C(=C(/CCCl)c2ccccc2)c2ccccc2)cc1 [toremifene, Toremifene]
- formation of MBP+ oligodendrocytes from OPCs (EpiSC-derived OPCs [2]; 72 h): enhanced MBP+ oligodendrocyte generation over a wide dose range
- enzyme inhibited in OPCs as indicated by sterol profile (OPCs; 24 h): inhibited EBP
- antiestrogen effect on estrogen-dependent growth (T47D cells): comparable antiestrogen effects
